In the NIST ThermoML archive (doi:10.1021/je060271a):
Values joined by “and” are separate entries in the source; they are usually repeats but may differ in a detail not shown here. Equal entries are not always repeated.

Conditions: 343.15 K, Liquid, Vibrating tube method

CCCCCCC(=O)OCC(COC(=O)CCCCCC)(COC(=O)CCCCCC)COC(=O)CCCCCC [pentaerythritol tetraheptanoate]
Conditions | mass density
23684 kPa | 957.2 kg/m3
23715 kPa | 957.3 kg/m3
23750 kPa | 957.4 kg/m3
23753 kPa | 957.2 kg/m3
23785 kPa | 957.4 kg/m3
23818 kPa | 957.3 kg/m3
23850 kPa | 957.4 kg/m3
23889 kPa | 957.4 kg/m3
23920 kPa | 957.3 kg/m3
23952 kPa | 957.4 kg/m3
23991 kPa | 957.4 kg/m3
24024 kPa | 957.5 kg/m3
24056 kPa | 957.6 kg/m3
24094 kPa | 957.5 kg/m3
24127 kPa | 957.6 kg/m3
24128 kPa | 957.6 kg/m3
24160 kPa | 957.5 kg/m3
24199 kPa | 957.7 kg/m3
24200 kPa | 957.5 kg/m3
24232 kPa | 957.6 kg/m3
24233 kPa | 957.6 kg/m3
24265 kPa | 957.6 kg/m3
24266 kPa | 957.8 kg/m3
24299 kPa | 957.6 kg/m3
24306 kPa | 957.6 kg/m3
24334 kPa | 957.8 kg/m3
24339 kPa | 957.7 kg/m3
24372 kPa | 957.7 kg/m3
24373 kPa | 957.8 kg/m3
24407 kPa | 957.7 kg/m3
24411 kPa | 957.8 kg/m3
24440 kPa | 957.7 kg/m3
24445 kPa | 957.8 kg/m3
24478 kPa | 957.8 kg/m3
24480 kPa | 957.8 kg/m3
24513 kPa | 957.8 kg/m3
24519 kPa | 957.7 kg/m3
24552 kPa | 957.7 kg/m3
24554 kPa | 957.8 kg/m3
24586 kPa | 957.9 kg/m3
24621 kPa | 958 kg/m3
24626 kPa | 957.9 kg/m3
24661 kPa | 957.9 kg/m3
24696 kPa | 957.9 kg/m3
24737 kPa | 957.9 kg/m3
24771 kPa | 957.9 kg/m3
24806 kPa | 957.9 kg/m3
24840 kPa | 958 kg/m3
24882 kPa | 958 kg/m3
24916 kPa | 958.1 kg/m3
24917 kPa | 958.1 kg/m3
24952 kPa | 958.1 kg/m3 and 958.2 kg/m3
24988 kPa | 958.2 kg/m3
24993 kPa | 958.1 kg/m3
25028 kPa | 958.2 kg/m3
25070 kPa | 958.2 kg/m3
25105 kPa | 958.1 kg/m3
25141 kPa | 958.2 kg/m3
25148 kPa | 958.1 kg/m3
25184 kPa | 958.3 kg/m3
25220 kPa | 958.2 kg/m3
25250 kPa | 958.4 kg/m3
25256 kPa | 958.1 kg/m3
25279 kPa | 958.4 kg/m3
25292 kPa | 958.2 kg/m3
25308 kPa | 958.3 kg/m3
25336 kPa | 958.4 kg/m3
25343 kPa | 958.5 kg/m3
25372 kPa | 958.2 kg/m3 and 958.5 kg/m3
25402 kPa | 958.5 kg/m3
25415 kPa | 958.3 kg/m3
25452 kPa | 958.3 kg/m3
25488 kPa | 958.3 kg/m3
25525 kPa | 958.4 kg/m3
25530 kPa | 958.5 kg/m3
25560 kPa | 958.5 kg/m3
25570 kPa | 958.4 kg/m3
25590 kPa | 958.5 kg/m3
25607 kPa | 958.6 kg/m3
25626 kPa | 958.5 kg/m3
25645 kPa | 958.4 kg/m3
25656 kPa | 958.6 kg/m3
25687 kPa | 958.6 kg/m3
25692 kPa | 958.5 kg/m3
25723 kPa | 958.6 kg/m3
25730 kPa | 958.5 kg/m3
25752 kPa | 958.6 kg/m3
25767 kPa | 958.6 kg/m3
25788 kPa | 958.7 kg/m3
25805 kPa | 958.7 kg/m3
25819 kPa | 958.6 kg/m3
25843 kPa | 958.6 kg/m3
25849 kPa | 958.6 kg/m3
25885 kPa | 958.7 kg/m3
25888 kPa | 958.5 kg/m3
25915 kPa | 958.7 kg/m3
25927 kPa | 958.6 kg/m3
25946 kPa | 958.8 kg/m3
25966 kPa | 958.7 kg/m3
25983 kPa | 958.8 kg/m3
26012 kPa | 958.8 kg/m3
26014 kPa | 958.9 kg/m3
26045 kPa | 958.9 kg/m3
26050 kPa | 958.8 kg/m3
26082 kPa | 958.8 kg/m3
26090 kPa | 958.7 kg/m3
26114 kPa | 958.9 kg/m3
26136 kPa | 958.8 kg/m3
26145 kPa | 958.8 kg/m3
26176 kPa | 958.9 kg/m3 and 958.8 kg/m3
26214 kPa | 958.9 kg/m3
26217 kPa | 958.9 kg/m3
26244 kPa | 959 kg/m3
26256 kPa | 958.9 kg/m3
26282 kPa | 958.9 kg/m3
26296 kPa | 959 kg/m3
26313 kPa | 959 kg/m3
26343 kPa | 958.9 kg/m3
26345 kPa | 959 kg/m3
26383 kPa | 959 kg/m3 and 959.1 kg/m3
26414 kPa | 958.9 kg/m3
26430 kPa | 959 kg/m3
26447 kPa | 959 kg/m3
26470 kPa | 959 kg/m3
26485 kPa | 959.1 kg/m3
26510 kPa | 959 kg/m3
26518 kPa | 959.2 kg/m3
26549 kPa | 959.1 kg/m3
26550 kPa | 959.2 kg/m3
26583 kPa | 959.2 kg/m3
26597 kPa | 959.3 kg/m3
26622 kPa | 959.1 kg/m3
26638 kPa | 959.2 kg/m3
26654 kPa | 959.2 kg/m3
26679 kPa | 959.1 kg/m3
26693 kPa | 959.1 kg/m3
26725 kPa | 959.3 kg/m3
26729 kPa | 959.2 kg/m3
26758 kPa | 959.2 kg/m3
26771 kPa | 959.3 kg/m3
26791 kPa | 959.3 kg/m3
26812 kPa | 959.3 kg/m3
26831 kPa | 959.4 kg/m3
26863 kPa | 959.2 kg/m3
26864 kPa | 959.3 kg/m3
26898 kPa | 959.4 kg/m3
26905 kPa | 959.3 kg/m3
26939 kPa | 959.3 kg/m3
26949 kPa | 959.3 kg/m3
26999 kPa | 959.3 kg/m3
27006 kPa | 959.3 kg/m3
27037 kPa | 959.4 kg/m3
27071 kPa | 959.4 kg/m3
27081 kPa | 959.5 kg/m3
27111 kPa | 959.5 kg/m3
27114 kPa | 959.5 kg/m3
27145 kPa | 959.5 kg/m3
27148 kPa | 959.5 kg/m3
27186 kPa | 959.5 kg/m3
27189 kPa | 959.6 kg/m3
27221 kPa | 959.5 kg/m3
27224 kPa | 959.6 kg/m3
27256 kPa | 959.5 kg/m3
27258 kPa | 959.6 kg/m3
27290 kPa | 959.6 kg/m3
27300 kPa | 959.5 kg/m3
27332 kPa | 959.6 kg/m3
27335 kPa | 959.7 kg/m3
27367 kPa | 959.7 kg/m3
27371 kPa | 959.6 kg/m3
27402 kPa | 959.6 kg/m3
27408 kPa | 959.7 kg/m3
27444 kPa | 959.6 kg/m3
27447 kPa | 959.7 kg/m3
27479 kPa | 959.7 kg/m3
27514 kPa | 959.7 kg/m3
27556 kPa | 959.7 kg/m3
27590 kPa | 959.8 kg/m3
27592 kPa | 959.8 kg/m3
27618 kPa | 959.8 kg/m3
27627 kPa | 959.8 kg/m3
27670 kPa | 959.9 kg/m3
27698 kPa | 959.7 kg/m3
27742 kPa | 959.8 kg/m3
27786 kPa | 959.9 kg/m3
27822 kPa | 959.8 kg/m3
27858 kPa | 959.9 kg/m3
27877 kPa | 959.9 kg/m3
27902 kPa | 960.1 kg/m3
27910 kPa | 960 kg/m3
27939 kPa | 960 kg/m3
27975 kPa | 959.9 kg/m3
28012 kPa | 959.9 kg/m3
28056 kPa | 960 kg/m3
28087 kPa | 960.2 kg/m3
28093 kPa | 960 kg/m3
28116 kPa | 960.2 kg/m3
28137 kPa | 960.1 kg/m3
28144 kPa | 960.1 kg/m3
28175 kPa | 960.1 kg/m3
28178 kPa | 960.2 kg/m3
28207 kPa | 960.1 kg/m3
28213 kPa | 960.2 kg/m3
28236 kPa | 960.1 kg/m3
28251 kPa | 960.2 kg/m3
28269 kPa | 960.2 kg/m3
28288 kPa | 960.2 kg/m3
28298 kPa | 960.3 kg/m3
28327 kPa | 960.2 kg/m3
28333 kPa | 960.2 kg/m3
28361 kPa | 960.4 kg/m3
28370 kPa | 960.2 kg/m3
28389 kPa | 960.3 kg/m3
28416 kPa | 960.3 kg/m3
28418 kPa | 960.3 kg/m3
28453 kPa | 960.3 kg/m3
28454 kPa | 960.3 kg/m3
28476 kPa | 960.5 kg/m3
28492 kPa | 960.3 kg/m3
28511 kPa | 960.3 kg/m3
28538 kPa | 960.4 kg/m3
28540 kPa | 960.4 kg/m3
28576 kPa | 960.4 kg/m3
28605 kPa | 960.4 kg/m3
